Measurements published in patent US10850274B2, “Microfluidic assisted perfusion devices” (The Regents of the University of California, priority 2015, dated 2020).

Columns and labels:
MCF7 spheroids = test: Change in MCF7 spheroid size after Doxorubicin treatment in tumor-on-a-chip device; assay type: cell-based; settings: for decrease in spheroid area: 3 days (D8 area normalized to D5)
Procedure: HUVECs and MCF7 spheroids were encapsulated within GelMA hydrogels. The MCF spheroids were passed through a cell strainer having 100 μm pore size (Corning) to eliminate single cells and small spheroids. Around 50 spheroids with a diameter of ˜200 μm were dispersed in 5 mL of PBS containing 2 million HUVEC cells. The mixture was centrifuged for 3 minutes at 800 rpm. The supernatant was aspirated and 100 μL of 10% GelMA solution was added to the cell pellet. The cells were re-suspended gently using a pipette before the addition of 0.01% ascorbic acid (antioxidant) and 2 μM LAP (photoinitiator) to the solution. This solution was again mixed gently, drawn into a syringe, and injected into the microfluidic device (FIG. 8, step G).
This device was placed onto a transparency film photomask containing an ellipse pattern and mounted onto a microscope stage (FIG. 8, steps H-I). Using the stage controller of the microscope, the position of the fluidic device was moved to locate individual MCF7 spheroids surrounded by HUVECs under bright field illumination. Each location was exposed to UV light with an excitation and emission wavelengths of approximately 358 and 463 nm, respectively, for 18 seconds. Several locations were photopolymerized before flushing the device with PBS containing 4% Penicillin/Streptomycin. Mixed Media (MM) containing 50% GM and 50% HM was subsequently injected into the device and the GelMA structures containing MCF7 spheroids and HUVECs were cultured at 37° C. and 10% CO2.
Brightfield images of the GelMA hydrogels containing the spheroids and HUVECs were recorded as a function of culture time (1-5 days) to examine their growth post-encapsulation. The area of the spheroid was quantified by tracing the boundary of the spheroid using the free-hand selection tool on ImageJ. […]
The potential of the device as a drug screening platform was assessed by analyzing the effects of Doxorubicin on HUVEC barrier and the tumor spheroids. […] To quantify the effects of Doxorubicin, the changes in spheroid size was analyzed before and after treatment with varying concentrations of the drug.

HUVECs = test: Effect of Doxorubicin on HUVEC endothelial barrier around GelMA structures
Procedure: HUVECs and MCF7 spheroids were encapsulated within GelMA hydrogels.
Doxorubicin (Cat. No. D1515, Sigma-Aldrich) was weighed and dissolved in DMSO to achieve a concentration of 100 mg/mL. This solution was distributed into small aliquots and stored in −20° C. The stock solution was thawed and diluted to 100 μg/mL in pre-warmed MM (˜37° C.) and sterilized using a DMSO-resistant syringe filter (Pall Corporations). This 100 μg/mL solution was further diluted in MM to acquire doxorubicin concentrations of 1 and 10 μg/mL used herein.
The potential of the device as a drug screening platform was assessed by analyzing the effects of Doxorubicin on HUVEC barrier and the tumor spheroids. Cell laden GelMA structures, cultured for 5 days, were exposed to different concentrations of Doxorubicin (1, 10, and 100 μg/mL) for 3 days.

[1] = test system: neonatal mouse cardiomyocytes
Procedure: Isolated primary neonatal cardiomyocytes were mixed with 8.5% wt/vol GelMa solution containing 0.01% wt/vol of ascorbic acid and 2 mM lithium phenyl-2,4,6-trimethylbenoylphosphinate (LAP). This solution was injected into the fluidics chamber (see FIG. 3D) and a dark transparency mask containing the clear ellipse patterns was placed under the circular chamber of the device. The GelMa solution was photo-polymerized using a UV light source with an excitation wavelength of 365±40 nm (see FIG. 3E). The regions of the hydrogel precursor solution exposed to UV light polymerized rapidly, thereby forming the microtissues with cells encapsulated within (see FIG. 3E). The unreacted hydrogel precursor solution was removed from the fluidics chamber by injecting PBS in excess (see FIG. 3F). Thus, the 3D device with patterned cardiac-microtissues between hydrogels was created (see FIG. 3G). The device was then perfused with cardiomyocyte growth media and incubated at 37° C. and 10% CO2 culture conditions. […]
To quantify the forces generated by the cardiomyocytes, the propagation of forces originating from the GelMA structures were exploited to PAm hydrogels. […] In addition, a measured value of 8.5 kPa was used for the elastic modulus of the PAm hydrogel and 0.45 for Poisson's ratio.
By treating the PAm hydrogel as a 3 dimensional block tethered at the bottom in mechanical equilibrium, a finite element (FE) approach was used to solve a series of electrostatics equations. […] To obtain the input for the boundary condition at the top surface of the gel, the displacement of the hydrogel was quantified by tracking the fluorescent particles embedded within the network using particle image velocimetry (PIV). […]
Using this approach, fluorescent images were obtained of the green beads embedded within PAm at a frequency of 9 frames per second in order to capture the contraction profile of the cardiomyocytes at 20× magnification. […] Using the FE approach, the traction stress field caused by the cellular forces was calculated.

Row | SMILES | spheroid growth less than those cultured in the absence of the drug (MCF7 spheroids; 1 μg/mL Doxorubicin, 3 days, growth still observed) [%] | decrease in spheroid area (MCF7 spheroids; 10 μg/mL Doxorubicin) [%] | decrease in spheroid area (MCF7 spheroids; 100 μg/mL Doxorubicin) [%] | presence of endothelial barrier (HUVECs; at and above 10 μg/mL of Doxorubicin, D8) | endothelial barrier (HUVECs; high doses of Doxorubicin (>10 μg/mL)) | endothelial barrier (cytotoxicity to HUVECs) (HUVECs; upon exposure to Doxorubicin, 3 days) | magnitude of contraction ([1]; addition of epinephrine (0.1 μg/mL)) | ratio of residual stress in the presence of epinephrine to absence of epinephrine ([1]; multiple microtissues, cultured 7 days, value <1 = decrease, epinephrine 0.1 μg/mL) | ratio of force amplitude in the presence of epinephrine to absence of epinephrine ([1]; multiple microtissues, cultured 7 days, value >1 = increase, epinephrine 0.1 μg/mL)
1 | COc1cccc2c1C(=O)c1c(O)c3c(c(O)c1C2=O)C[C@@](O)(C(=O)CO)C[C@@H]3O[C@H]1C[C@H](N)[C@H](O)[C@H](C)O1 [Doxorubicin] | ~20 | ~7 | ~15 | lack thereof | loss of the endothelial barrier | disappeared | – | – | –
2 | CNC[C@H](O)c1ccc(O)c(O)c1 [epinephrine] | – | – | – | – | – | – | increased | ~0.9 | ~1.4
